Measurements from paper PMC10221074, “Functional Profiling of the A-Family of Venom Peptides from the Wolf Spider Lycosa shansia” (Toxins, 2023).

How the values were obtained:
[1] = tested on: Staphylococcus epidermidis DSM 28319; assay: Antibacterial growth assay (OD600); conditions: for Bacterial growth relative to medium, S. epidermidis, replicate 1 / Bacterial growth relative to medium, S. epidermidis, replicate 2 / Bacterial growth relative to medium, S. epidermidis, replicate 3: OD600, medium = 100, MH II broth, 37 °C, peptide 200 µM mixed 50 µL + 50 µL with bacteria, Figure 7: 48 h; for Bacterial growth relative to medium, S. epidermidis, replicate 1: replicate column 1; for Bacterial growth relative to medium, S. epidermidis, replicate 2: replicate column 2; for Bacterial growth relative to medium, S. epidermidis, replicate 3: replicate column 3
Description: (§1) Cryo-conserved cultures of selected bacterial strains (Table 4) were transferred to Tryptic Soy Agar (TSA) plates (Carl Roth) with a sterile inoculation loop, sealed with Parafilm (BEMIS, Neenah, WI, USA), and incubated for 1–2 days at 37 °C depending on growth. Single colonies were picked and transferred into 2–3 mL of the Mueller–Hinton II (MH II) broth (BD, Heidelberg, Germany). The bacteria were cultivated overnight, subcultured on fresh medium and grown for 3–4 h before testing at 37 °C, with shaking at 180 rpm. We measured the optical density at 600 nm (OD600) of 1 mL of the bacterial suspensions in polystyrene cuvettes (SARSTED, Nümbrecht, Germany) using an Ultrospec 10 spectrophotometer (Biochrome, Cambridge, UK). We then diluted them with the MH II medium to the preferred OD600 (Table 2). The peptides were dissolved in DMSO to generate 10 mmol/L stocks and diluted with the MH II medium to 200 µM before the assay. We used 10 µg/mL (~40 µg/mL for S. epidermidis) gentamicin and colistin (Sigma-Aldrich, Taufkirchen, Germany), DMSO and the medium only as controls. The bacteria were transferred to 96-multiwell plates with a final volume of 100 µL per well (50 µL bacterial suspension, and 50 µL test peptide). The OD600 was measured at 0, 24 and 48 h using a BioTek Eon microplate reader followed by analysis with Gen5 v2.09.

A/Hessen/1/2003 (H3N2) = type: cell-based, influenza virus
[2] = tested on: Escherichia coli BL21(DE3); assay: Antibacterial growth assay (OD600); conditions: for Bacterial growth relative to medium, E. coli, replicate 1 / Bacterial growth relative to medium, E. coli, replicate 2 / Bacterial growth relative to medium, E. coli, replicate 3: OD600, medium = 100, MH II broth, 37 °C, peptide 200 µM mixed 50 µL + 50 µL with bacteria, Figure 7: 48 h; for Bacterial growth relative to medium, E. coli, replicate 1: replicate column 1; for Bacterial growth relative to medium, E. coli, replicate 2: replicate column 2; for Bacterial growth relative to medium, E. coli, replicate 3: replicate column 3
Description: as §1

[3] = tested on: Pseudomonas aeruginosa DSM 50071; assay: Antibacterial growth assay (OD600); conditions: OD600, medium = 100, MH II broth, 37 °C, peptide 200 µM mixed 50 µL + 50 µL with bacteria, Figure 7: 48 h; for Bacterial growth relative to medium, P. aeruginosa (50071), replicate 1: replicate column 1; for Bacterial growth relative to medium, P. aeruginosa (50071), replicate 2: replicate column 2; for Bacterial growth relative to medium, P. aeruginosa (50071), replicate 3: replicate column 3
[4] = tested on: Micrococcus luteus DSM 20030; assay: Antibacterial growth assay (OD600); conditions: for Antibacterial activity (in words): M. luteus DSM 20030, growth after 48 h; for Bacterial growth relative to medium, M. luteus, replicate 1 / Bacterial growth relative to medium, M. luteus, replicate 2 / Bacterial growth relative to medium, M. luteus, replicate 3: OD600, medium = 100, MH II broth, 37 °C, peptide 200 µM mixed 50 µL + 50 µL with bacteria, Figure 7: 48 h; for Bacterial growth relative to medium, M. luteus, replicate 1: replicate column 1; for Bacterial growth relative to medium, M. luteus, replicate 2: replicate column 2; for Bacterial growth relative to medium, M. luteus, replicate 3: replicate column 3
A/Hamburg/05/2009 (H1N1) = type: cell-based, influenza virus
[5] = tested on: Pseudomonas aeruginosa DSM 1117; assay: Antibacterial growth assay (OD600); conditions: OD600, medium = 100, MH II broth, 37 °C, peptide 200 µM mixed 50 µL + 50 µL with bacteria, Figure 7: 48 h; for Bacterial growth relative to medium, P. aeruginosa (1117), replicate 1: replicate column 1; for Bacterial growth relative to medium, P. aeruginosa (1117), replicate 2: replicate column 2; for Bacterial growth relative to medium, P. aeruginosa (1117), replicate 3: replicate column 3
[6] = tested on: Staphylococcus aureus DSM 2569; assay: Antibacterial growth assay (OD600); conditions: for Bacterial growth relative to medium, S. aureus, replicate 1 / Bacterial growth relative to medium, S. aureus, replicate 2 / Bacterial growth relative to medium, S. aureus, replicate 3: OD600, medium = 100, MH II broth, 37 °C, peptide 200 µM mixed 50 µL + 50 µL with bacteria, Figure 7: 48 h; for Bacterial growth relative to medium, S. aureus, replicate 1: replicate column 1; for Bacterial growth relative to medium, S. aureus, replicate 2: replicate column 2; for Bacterial growth relative to medium, S. aureus, replicate 3: replicate column 3
Description: as §1

[7] = tested on: B/Malaysia/2506/2004 (B-Mal); type: cell-based, influenza virus
G. mellonella larvae = assay: Insecticidal activity by injection into larvae; type: in vivo, Galleria mellonella; conditions: 50 ng peptide injected, 3 cohorts of 10 larvae, survival monitored for 5 days
Description: Insecticidal activity was determined using fourth and fifth instar G. mellonella larvae (L4/L5) obtained from Fauna Topics Zoobedarf Zucht und Handels GmbH (Marbach am Neckar, Germany). Because spider venom is injected via chelicerae, we opted for an injection-based assay to reflect the natural process of envenomation as described earlier. The peptides were dissolved in a 1:1 mixture of DMSO and water to a final concentration of 10 mmol/L. We injected 50 ng of each peptide into the pseudopodium using Omnican-F, 0.30 × 12 mm/G 30 × 1/2”, a 1 mL syringe adjusted to a WPI manual microsyringe injector setup. Injections with water, DMSO/water (1:1) and ethanol (90%) were used as controls, alongside untreated specimens. Insecticidal activity screenings were performed in cohorts of 10 larvae with 3 replicates (30 specimens per treatment or control). […] Survival was monitored every 24 h for 5 days. Mortality was calculated based on the ratio of dead to injected specimens.

[8] = tested on: Listeria monocytogenes DSM 20600; assay: Antibacterial growth assay (OD600); conditions: for Bacterial growth relative to medium, L. monocytogenes, replicate 1 / Bacterial growth relative to medium, L. monocytogenes, replicate 2 / Bacterial growth relative to medium, L. monocytogenes, replicate 3: OD600, medium = 100, MH II broth, 37 °C, peptide 200 µM mixed 50 µL + 50 µL with bacteria, Figure 7: 48 h; for Bacterial growth relative to medium, L. monocytogenes, replicate 1: replicate column 1; for Bacterial growth relative to medium, L. monocytogenes, replicate 2: replicate column 2; for Bacterial growth relative to medium, L. monocytogenes, replicate 3: replicate column 3
[9] = tested on: panel of seven bacterial strains; assay: Antibacterial growth assay (OD600), statements on the whole panel; type: cell-based; conditions: growth after 48 h

LLDVVKSKIGQTGLL [LS-AMP-A16]
Bacterial growth relative to medium, S. epidermidis, replicate 1 [1]: 52.6925
Bacterial growth relative to medium, S. epidermidis, replicate 2 [1]: 45.3012
Bacterial growth relative to medium, S. epidermidis, replicate 3 [1]: 72.1389
Antibacterial activity (in words) ([1]; S. epidermidis DSM 28319, growth after 48 h): able to decrease the growth
Viability of infected cells relative to aprotinin, Replicate 1 (A/Hessen/1/2003 (H3N2)): 0.0324
Viability of infected cells relative to aprotinin, Replicate 2 (A/Hessen/1/2003 (H3N2)): 0.05366
Viability of infected cells relative to aprotinin, Replicate 3 (A/Hessen/1/2003 (H3N2)): 0.1082
Antibacterial activity (in words) ([2]; E. coli BL21(DE3), growth after 48 h): able to decrease the growth
Bacterial growth relative to medium, E. coli, replicate 1 [2]: 67.9376
Bacterial growth relative to medium, E. coli, replicate 2 [2]: 59.8494
Bacterial growth relative to medium, E. coli, replicate 3 [2]: 34.0285
Bacterial growth relative to medium, P. aeruginosa (50071), replicate 1 [3]: 93.645
Bacterial growth relative to medium, P. aeruginosa (50071), replicate 2 [3]: 105.945
Bacterial growth relative to medium, P. aeruginosa (50071), replicate 3 [3]: 72.2488
Antibacterial activity (in words) [4]: able to decrease the growth
Bacterial growth relative to medium, M. luteus, replicate 1 [4]: 57.3268
Bacterial growth relative to medium, M. luteus, replicate 2 [4]: 84.1216
Bacterial growth relative to medium, M. luteus, replicate 3 [4]: 27.4989
Viability of infected cells relative to aprotinin, Replicate 1 (A/Hamburg/05/2009 (H1N1)): 0.02774
Viability of infected cells relative to aprotinin, Replicate 2 (A/Hamburg/05/2009 (H1N1)): 0.02676
Viability of infected cells relative to aprotinin, Replicate 3 (A/Hamburg/05/2009 (H1N1)): 0.01877
Bacterial growth relative to medium, P. aeruginosa (1117), replicate 1 [5]: 71.8168
Bacterial growth relative to medium, P. aeruginosa (1117), replicate 2 [5]: 74.7999
Bacterial growth relative to medium, P. aeruginosa (1117), replicate 3 [5]: 64.6393
Bacterial growth relative to medium, S. aureus, replicate 1 [6]: 50.7381
Bacterial growth relative to medium, S. aureus, replicate 2 [6]: 99.8365
Bacterial growth relative to medium, S. aureus, replicate 3 [6]: 66.4796
Antibacterial activity (in words) ([6]; S. aureus DSM 2569, growth after 48 h): able to decrease the growth
Viability of infected cells relative to aprotinin, Replicate 1 [7]: 0.002646
Viability of infected cells relative to aprotinin, Replicate 2 [7]: 0.01088
Viability of infected cells relative to aprotinin, Replicate 3 [7]: 0.03862
Insecticidal effect on larvae (in words) (G. mellonella larvae): Individual dead insects
Antibacterial activity (in words) ([8]; L. monocytogenes DSM 20600, growth after 48 h): able to decrease the growth
Bacterial growth relative to medium, L. monocytogenes, replicate 1 [8]: 81.5984
Bacterial growth relative to medium, L. monocytogenes, replicate 2 [8]: 58.0902
Bacterial growth relative to medium, L. monocytogenes, replicate 3 [8]: 20.8033
Antibacterial activity over the panel (in words) [9]: broad activity against all tested bacteria except P. aeruginosa DSM50071

SLLGLLDVVKNTVGQT [LS-AMP-A10]
Bacterial growth relative to medium, S. epidermidis, replicate 1 [1]: 79.4001
Bacterial growth relative to medium, S. epidermidis, replicate 2 [1]: 71.0012
Bacterial growth relative to medium, S. epidermidis, replicate 3 [1]: 83.073
Viability of infected cells relative to aprotinin, Replicate 1 (A/Hessen/1/2003 (H3N2)): 0.05441
Viability of infected cells relative to aprotinin, Replicate 2 (A/Hessen/1/2003 (H3N2)): 0.1761
Viability of infected cells relative to aprotinin, Replicate 3 (A/Hessen/1/2003 (H3N2)): 0.1729
Viability of infected cells relative to aprotinin, Replicate 4 (A/Hessen/1/2003 (H3N2); […], replicate 4 (additional internal control)): 0.1942
Bacterial growth relative to medium, E. coli, replicate 1 [2]: 81.6291
Bacterial growth relative to medium, E. coli, replicate 2 [2]: 64.3105
Bacterial growth relative to medium, E. coli, replicate 3 [2]: 57.0069
Bacterial growth relative to medium, P. aeruginosa (50071), replicate 1 [3]: 97.2952
Bacterial growth relative to medium, P. aeruginosa (50071), replicate 2 [3]: 110.352
Bacterial growth relative to medium, P. aeruginosa (50071), replicate 3 [3]: 83.9978
Antibacterial activity (in words) [4]: no activity
Bacterial growth relative to medium, M. luteus, replicate 1 [4]: 61.1915
Bacterial growth relative to medium, M. luteus, replicate 2 [4]: 88.7389
Bacterial growth relative to medium, M. luteus, replicate 3 [4]: 35.3419
Viability of infected cells relative to aprotinin, Replicate 1 (A/Hamburg/05/2009 (H1N1)): 0.0352
Viability of infected cells relative to aprotinin, Replicate 2 (A/Hamburg/05/2009 (H1N1)): 0.02417
Viability of infected cells relative to aprotinin, Replicate 3 (A/Hamburg/05/2009 (H1N1)): 0.03391
Bacterial growth relative to medium, P. aeruginosa (1117), replicate 1 [5]: 65.0772
Bacterial growth relative to medium, P. aeruginosa (1117), replicate 2 [5]: 90.1148
Bacterial growth relative to medium, P. aeruginosa (1117), replicate 3 [5]: 64.0892
Bacterial growth relative to medium, S. aureus, replicate 1 [6]: 64.1206
Bacterial growth relative to medium, S. aureus, replicate 2 [6]: 64.9771
Bacterial growth relative to medium, S. aureus, replicate 3 [6]: 91.1709
Viability of infected cells relative to aprotinin, Replicate 1 [7]: 0.07328
Viability of infected cells relative to aprotinin, Replicate 2 [7]: 0.09773
Viability of infected cells relative to aprotinin, Replicate 3 [7]: 0.07183
Insecticidal effect on larvae (in words) (G. mellonella larvae): Individual dead insects
Bacterial growth relative to medium, L. monocytogenes, replicate 1 [8]: 109.148
Bacterial growth relative to medium, L. monocytogenes, replicate 2 [8]: 78.161
Bacterial growth relative to medium, L. monocytogenes, replicate 3 [8]: 28.6946
Antibacterial activity over the panel (in words) [9]: inhibited the growth of most of the bacteria except two
